Where a name gives a salt, the structure may show the parent alone. A value given as a limit tells only on which side of the number the result lay.

Sequence of human NaV 1.8 (Q9Y5Y9 126-399 limits assumed): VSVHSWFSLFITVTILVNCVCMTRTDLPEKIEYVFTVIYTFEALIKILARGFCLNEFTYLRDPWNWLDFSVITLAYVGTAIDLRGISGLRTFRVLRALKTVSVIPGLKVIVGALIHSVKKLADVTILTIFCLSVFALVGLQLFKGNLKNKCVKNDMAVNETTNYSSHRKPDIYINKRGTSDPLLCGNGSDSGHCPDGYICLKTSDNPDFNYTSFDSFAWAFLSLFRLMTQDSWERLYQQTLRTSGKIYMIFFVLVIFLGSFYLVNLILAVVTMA
Sequence of human NaV 1.8 (Q9Y5Y9 660-890 limits assumed): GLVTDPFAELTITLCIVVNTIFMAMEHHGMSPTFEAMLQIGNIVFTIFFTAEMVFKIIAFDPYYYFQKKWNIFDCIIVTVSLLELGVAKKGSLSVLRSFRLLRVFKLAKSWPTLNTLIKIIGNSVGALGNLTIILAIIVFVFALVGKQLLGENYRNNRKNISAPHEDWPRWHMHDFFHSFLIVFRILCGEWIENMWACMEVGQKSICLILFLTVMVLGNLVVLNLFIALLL
Sequence of human NaV 1.8 (Q9Y5Y9 1148-1722 limits assumed): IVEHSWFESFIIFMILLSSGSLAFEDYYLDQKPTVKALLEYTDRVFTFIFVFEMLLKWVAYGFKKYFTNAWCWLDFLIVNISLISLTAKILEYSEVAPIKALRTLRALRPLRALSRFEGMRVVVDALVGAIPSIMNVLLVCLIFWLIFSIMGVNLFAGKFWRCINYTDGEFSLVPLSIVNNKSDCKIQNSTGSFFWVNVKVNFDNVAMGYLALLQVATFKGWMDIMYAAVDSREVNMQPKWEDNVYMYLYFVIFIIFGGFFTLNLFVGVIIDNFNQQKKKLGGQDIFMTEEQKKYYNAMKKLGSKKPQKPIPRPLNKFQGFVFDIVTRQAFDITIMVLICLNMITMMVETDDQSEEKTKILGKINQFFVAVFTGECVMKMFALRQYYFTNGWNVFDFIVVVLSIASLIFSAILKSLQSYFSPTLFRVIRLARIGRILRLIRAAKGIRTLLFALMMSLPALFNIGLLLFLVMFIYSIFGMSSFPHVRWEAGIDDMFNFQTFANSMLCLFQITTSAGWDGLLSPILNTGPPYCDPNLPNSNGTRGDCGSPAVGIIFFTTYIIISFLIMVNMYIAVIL

The first assay deals with human NaV 1.8 (Homo sapiens, UniProt Q9Y5Y9). Description: E-VIPR assay detecting and measuring NaV inhibition properties. The conditions noted are these: HEK cells expressing truncated human NaV 1.8; in the presence of human serum (compound numbers followed by *); read-out: IC50 in the E-VIPR Assay, performed in the presence of human serum. Format: cell-based. Put shortly:
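HEK cells expressing truncated, fully active human NaV1.8, with KIR2.1 BacMam co-transduction, were loaded with CC2-DMPE/DiSBAC6(3) voltage-sensing dyes for 20 min at room temperature. Compounds were tested in 11-point 3-fold dilutions (300 nM top final), optionally with 25% human serum, under electrical stimulation with FRET read-out.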
Broadly, the IC50 is the concentration that gives 50% inhibition. With `COc1c(C2CC(C)(C(F)(F)F)OC2C(=O)Nc2ccnc(C(O)C(C)O)c2)ccc(F)c1F` (single isomer, unassigned) [Compound 696], the IC50 fell in the range of 10 to 100 nM.

For the compound `COc1c(C2C(C(=O)Nc3ccnc(C(C)(O)CO)c3)OC(C)(C)C2C)ccc(F)c1F` (single isomer, unassigned) [Compound 725, rel-3-(3,4-difluoro-2-methoxyphenyl)-N-(2-(1,2-dihydroxypropan-2-yl)pyridin-4-yl)-4,5,5-trimethyltetrahydrofuran-2-carboxamide], the IC50 is ≥ 1000 nM.

The same assay, now with this note: HEK cells expressing truncated human NaV 1.8; no human serum; read-out: IC50 in the E-VIPR Assay.
In the case of `Cc1ncc(NC(=O)[C@@H]2O[C@@](C)(C(F)(F)F)[C@@H](C)[C@H]2c2ccc(F)c(F)c2OCCO)cn1` [Compound 569, (2R,3S,4S,5R)-3-(3,4-difluoro-2-(2-hydroxyethoxy)phenyl)-4,5-dimethyl-N-(2-methylpyrimidin-5-yl)-5-(trifluoromethyl)tetrahydrofuran-2-carboxamide], the IC50 lay within 100 to 1000 nM.

In the case of `C[C@H]1[C@@H](c2ccc(F)c(F)c2OCCO)[C@H](C(=O)Nc2ccnc(CO)c2)O[C@@]1(C)C(F)(F)F` [Compound 537, (2R,3S,4S,5R)-3-(3,4-difluoro-2-(2-hydroxyethoxy)phenyl)-N-(2-(hydroxymethyl)pyridin-4-yl)-4,5-dimethyl-5-(trifluoromethyl)tetrahydrofuran-2-carboxamide], the IC50 is < 10 nM.

On to `CCOc1c(C2C(C(=O)Nc3cc(S(C)(=N)=O)c[n+](C)c3)OC(C)(C(F)(F)F)C2C)ccc(F)c1F` (stereo not drawn) [Compound 114, 3-(2-ethoxy-3,4-difluoro-phenyl)-4,5-dimethyl-N-[1-methyl-5-(methylsulfonimidoyl)pyridin-1-ium-3-yl]-5-(trifluoromethyl)tetrahydrofuran-2-carboxamide], for which the IC50 was 100 to 1000 nM.

Regarding `C[C@H]1[C@@H](c2ccc(F)c(F)c2OCC2COC2)[C@H](C(=O)Nc2ccc(C(C)(C)O)nc2)O[C@@]1(C)C(F)(F)F` [Compound 581, (2R,3S,4S,5R)-3-(3,4-difluoro-2-(oxetan-3-ylmethoxy)phenyl)-N-(6-(2-hydroxypropan-2-yl)pyridin-3-yl)-4,5-dimethyl-5-(trifluoromethyl)tetrahydrofuran-2-carboxamide (TFA salt)], the IC50 lay within 100 to 1000 nM.

In the case of `C[C@H]1[C@@H](c2ccc(F)c(F)c2OCC2COC2)[C@H](C(=O)Nc2ccc(C(N)=O)nc2)O[C@@]1(C)C(F)(F)F` [Compound 580, 5-((2R,3S,4S,5R)-3-(3,4-difluoro-2-(oxetan-3-ylmethoxy)phenyl)-4,5-dimethyl-5-(trifluoromethyl)tetrahydrofuran-2-carboxamido)picolinamide], the IC50 is < 10 nM.

Regarding `CN=S(C)(=O)c1cc(NC(=O)[C@H]2O[C@](C)(C(F)(F)F)[C@H](C)[C@@H]2c2ccc(F)c(F)c2OC)ccn1` (relative stereo) [Compound 527, rel-(2S,3R,4R,5S)-3-(3,4-difluoro-2-methoxyphenyl)-N-(2-(N,S-dimethylsulfonimidoyl)pyridin-4-yl)-4,5-dimethyl-5-(trifluoromethyl)tetrahydrofuran-2-carboxamide], the IC50 was in the range of 100 to 1000 nM.

As for `COc1c([C@H]2[C@H](C(=O)Nc3ccnc(N4CC(N)CC4=O)c3)O[C@@](C)(C(F)(F)F)[C@H]2C)ccc(F)c1F` (single isomer, unassigned) [Compound 496, rel-(2R*,3S*,4S*,5R*)-N-(2-(4-amino-2-oxopyrrolidin-1-yl)pyridin-4-yl)-3-(3,4-difluoro-2-methoxyphenyl)-4,5-dimethyl-5-(trifluoromethyl)tetrahydrofuran-2-carboxamide], the IC50 fell in the range of 10 to 100 nM.

As for `CCOc1c([C@H]2[C@H](C(=O)Nc3ccnc(S(C)(=O)=NC)c3)O[C@@](C)(C(F)(F)F)[C@H]2C)ccc(F)c1C` (single isomer, unassigned) [Compound 130], the IC50 was < 10 nM.

Take `COCC1(CNC(=O)[C@@H]2O[C@@](C)(C(F)(F)F)[C@@H](C)[C@H]2c2ccc(F)c(F)c2OC)CCC1` [Compound 276, (2R,3S,4S,5R)-3-(3,4-difluoro-2-methoxyphenyl)-N-((1-(methoxymethyl)cyclobutyl)methyl)-4,5-dimethyl-5-(trifluoromethyl)tetrahydrofuran-2-carboxamide]: the IC50 is ≥ 1000 nM.

Turning to `COCc1cc(NC(=O)[C@@H]2O[C@@](C)(C(F)(F)F)[C@@H](C)[C@H]2c2ccc(F)c(F)c2OCCO)ccn1` [Compound 564, (2R,3S,4S,5R)-3-(3,4-difluoro-2-(2-hydroxyethoxy)phenyl)-N-(2-(methoxymethyl)pyridin-4-yl)-4,5-dimethyl-5-(trifluoromethyl)tetrahydrofuran-2-carboxamide], the IC50 is < 10 nM.

For the compound `COc1c([C@H]2[C@H](C(=O)Nc3ccnc(N4CCCNCC4=O)c3)O[C@@](C)(C(F)(F)F)[C@H]2C)ccc(F)c1F` [Compound 481, (2R,3S,4S,5R)-3-(3,4-difluoro-2-methoxyphenyl)-4,5-dimethyl-N-(2-(2-oxo-1,4-diazepan-1-yl)pyridin-4-yl)-5-(trifluoromethyl)tetrahydrofuran-2-carboxamide], the IC50 was 10 to 100 nM.

Consider `COc1c([C@H]2[C@H](C(=O)Nc3cc(C(N)C(C)(C)O)ncc3F)O[C@@](C)(C(F)(F)F)[C@H]2C)ccc(F)c1F` (single isomer, unassigned) [Compound 428, rel-(2R*,3S*,4S*,5R*)-N-(2-(1-amino-2-hydroxy-2-methylpropyl)-5-fluoropyridin-4-yl)-3-(3,4-difluoro-2-methoxyphenyl)-4,5-dimethyl-5-(trifluoromethyl)-tetrahydrofuran-2-carboxamide], for which the IC50 was < 10 nM.

As for `COc1c([C@H]2[C@H](C(=O)NCc3cc(C(N)=O)co3)O[C@@](C)(C(F)(F)F)[C@H]2C)ccc(F)c1F` [Compound 286, 5-(((2R,3S,4S,5R)-3-(3,4-difluoro-2-methoxyphenyl)-4,5-dimethyl-5-(trifluoromethyl)tetrahydrofuran-2-carboxamido)methyl)furan-3-carboxamide], the concentration for half-maximal inhibition (IC50) was ≥ 1000 nM.

On to `COc1c([C@H]2[C@H](C(=O)Nc3ccnc(C(C)O)c3)O[C@@](C)(C(F)(F)F)[C@H]2C)ccc(F)c1F` (single isomer, unassigned) [Compound 532], for which the IC50 is < 10 nM.

`COc1c([C@H]2[C@H](C(=O)Nc3ccnc(C(F)CO)c3)O[C@@](C)(C(F)(F)F)[C@H]2C)ccc(F)c1F` (single isomer, unassigned) [Compound 439, rel-(2R*,3S*,4S*,5R*)-3-(3,4-difluoro-2-methoxyphenyl)-N-(2-(1-fluoro-2-hydroxyethyl)pyridin-4-yl)-4,5-dimethyl-5-(trifluoromethyl)tetrahydrofuran-2-carboxamide]: the IC50 is < 10 nM.

Consider `COCc1cc(C)nc(NC(=O)[C@@H]2O[C@@](C)(C(F)(F)F)[C@@H](C)[C@H]2c2ccc(F)c(F)c2OCCO)n1` [Compound 562, (2R,3S,4S,5R)-3-(3,4-difluoro-2-(2-hydroxyethoxy)phenyl)-N-(4-(methoxymethyl)-6-methylpyrimidin-2-yl)-4,5-dimethyl-5-(trifluoromethyl)tetrahydrofuran-2-carboxamide], for which the IC50 is ≥ 1000 nM.
